Literature values in patent US7101871B2, “Beta-amino heterocyclic dipeptidyl peptidase inhibitors for the treatment or prevention of diabetes” (Merck & Co., Inc., priority 2002, dated 2006).

Legend:
[1] = tested on: GRF degradation in plasma
[2] = tested on: cardiac allograft; conditions: rats; doubled from day 7 to day 14
[3] = tested on: hematopoiesis; conditions: mouse, cyclophosphamide-induced neutropenia (WO 99/56753)

In the case of `CC[C@H](C)[C@H](N)C(=O)N1CCC[C@H]1C(=O)N[C@H](C(=O)O)[C@@H](C)CC` [diprotin A], the “effect on degradation of GRF to GRF[3-44] in plasma” value [1] is given as “prevented”.
For `CC(C)N1CCC(c2ccccc2)(c2ccccc2)CC1` [Prodipine, Pro-Pro-diphenyl-phosphonate], the cardiac allograft survival [2] is given as 14 day.
For `CC(C)[C@H](N)C(=O)N1CCC[C@H]1B(O)O` [Val-Boro-Pro], the effect on hematopoiesis [3] is given as “stimulated hematopoiesis”.
